Measured values taken from patent US8541418B2, “Inhibitors of polo-like kinase” (Elan Pharmaceutical, Inc., priority 2009, dated 2013).
Where two headings read alike, the source gives them in different places.

Tests used:
Assay type in all cases: biochemical
PLK1 = PLK1 (Homo sapiens, UniProt P53350); experiment: PLK TR-FRET peptide assay, PLK1
PLK2 = PLK2 (Homo sapiens, UniProt Q9NYY3); experiment: PLK TR-FRET peptide assay, PLK2; details: for IC50: PLK TR-FRET peptide assay, read-out: Plk2 IC50; for relative PLK2 activity of the enantiomers: compared with the opposite enantiomer
PLK2, sequence (Q9NYY3 whole entry): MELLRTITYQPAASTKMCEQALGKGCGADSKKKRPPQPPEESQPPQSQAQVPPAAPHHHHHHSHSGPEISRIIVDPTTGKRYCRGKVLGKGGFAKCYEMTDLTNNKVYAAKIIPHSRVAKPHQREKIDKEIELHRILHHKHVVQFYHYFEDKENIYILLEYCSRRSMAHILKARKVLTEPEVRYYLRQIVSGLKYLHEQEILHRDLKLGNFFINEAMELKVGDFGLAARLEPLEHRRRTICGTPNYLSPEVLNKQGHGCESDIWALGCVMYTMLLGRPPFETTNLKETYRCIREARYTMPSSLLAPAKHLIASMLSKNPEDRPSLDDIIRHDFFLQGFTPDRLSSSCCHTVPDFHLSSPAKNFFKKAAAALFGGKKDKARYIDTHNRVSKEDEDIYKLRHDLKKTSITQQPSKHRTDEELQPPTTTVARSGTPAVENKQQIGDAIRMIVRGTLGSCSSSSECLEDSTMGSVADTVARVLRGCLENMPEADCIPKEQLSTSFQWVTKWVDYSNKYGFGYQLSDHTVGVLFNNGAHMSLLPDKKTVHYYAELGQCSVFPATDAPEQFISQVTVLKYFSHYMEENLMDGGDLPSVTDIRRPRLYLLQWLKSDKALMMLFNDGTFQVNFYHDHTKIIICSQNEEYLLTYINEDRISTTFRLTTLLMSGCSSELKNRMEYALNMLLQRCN

PLK3 = PLK3 (Homo sapiens, UniProt Q9H4B4); experiment: PLK TR-FRET peptide assay, PLK3
PLK3, sequence (Q9H4B4 whole entry): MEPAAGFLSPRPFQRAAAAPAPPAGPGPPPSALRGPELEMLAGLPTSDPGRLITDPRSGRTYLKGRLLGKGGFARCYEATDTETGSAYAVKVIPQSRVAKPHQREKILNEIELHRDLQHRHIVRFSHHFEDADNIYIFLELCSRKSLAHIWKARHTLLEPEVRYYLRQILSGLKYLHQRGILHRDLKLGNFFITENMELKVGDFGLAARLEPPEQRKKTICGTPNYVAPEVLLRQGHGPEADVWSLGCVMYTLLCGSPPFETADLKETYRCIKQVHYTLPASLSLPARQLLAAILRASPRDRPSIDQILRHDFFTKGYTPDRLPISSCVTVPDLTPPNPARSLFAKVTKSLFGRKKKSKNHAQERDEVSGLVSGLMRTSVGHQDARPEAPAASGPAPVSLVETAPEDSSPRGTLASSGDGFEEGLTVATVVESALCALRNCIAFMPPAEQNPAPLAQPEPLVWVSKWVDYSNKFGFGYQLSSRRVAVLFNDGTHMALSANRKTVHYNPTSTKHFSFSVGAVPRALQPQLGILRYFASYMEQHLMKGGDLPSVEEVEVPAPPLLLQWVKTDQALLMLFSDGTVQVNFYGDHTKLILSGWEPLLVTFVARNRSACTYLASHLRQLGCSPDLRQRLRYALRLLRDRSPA

[1] = GST-PLK3, 15 min reaction, read-out: Plk3 IC50

PLK1, sequence (P53350 whole entry): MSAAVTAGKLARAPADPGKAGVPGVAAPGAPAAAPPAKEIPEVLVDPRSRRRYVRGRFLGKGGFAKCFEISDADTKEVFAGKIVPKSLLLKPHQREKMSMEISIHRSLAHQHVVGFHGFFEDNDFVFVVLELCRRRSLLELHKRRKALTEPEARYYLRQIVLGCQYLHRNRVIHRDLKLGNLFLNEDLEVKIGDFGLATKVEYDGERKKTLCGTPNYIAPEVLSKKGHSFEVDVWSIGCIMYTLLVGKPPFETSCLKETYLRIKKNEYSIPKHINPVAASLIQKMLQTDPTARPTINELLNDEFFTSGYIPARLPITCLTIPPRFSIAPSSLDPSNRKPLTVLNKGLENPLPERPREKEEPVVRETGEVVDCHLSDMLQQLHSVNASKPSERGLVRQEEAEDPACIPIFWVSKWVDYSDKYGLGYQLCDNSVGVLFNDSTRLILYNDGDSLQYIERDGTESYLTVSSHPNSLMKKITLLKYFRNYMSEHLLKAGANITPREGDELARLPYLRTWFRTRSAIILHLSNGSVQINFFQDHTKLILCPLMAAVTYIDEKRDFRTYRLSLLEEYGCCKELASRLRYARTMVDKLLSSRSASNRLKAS

Row | IC50 (PLK1; GST-PLK1, 60 min reaction) | IC50 (PLK2; GST-PLK2, 60 min reaction) | IC50 (PLK3; [1]) | IC50 (PLK1; GST-PLK1) | IC50 (PLK2; GST-PLK2) | IC50 (PLK3; GST-PLK3, read-out: Plk3 IC50) | relative PLK2 activity of the enantiomers (PLK2) | SMILES
1 | 10 to 50 µM | 10 to 50 µM | > 50 µM | – | – | – | – | CC[C@@H]1C(=O)N(C)c2cnc(-n3ccnc3N3CCN(C)CC3)nc2N1C1CCCC1 [Example 88, (R)-8-cyclopentyl-7-ethyl-5-methyl-2-(2-(4-methylpiperazin-1-yl)-1H-imidazol-1-yl)-7,8-dihydropteridin-6(5H)-one]
2 | 1 to 10 µM | < 1 µM | > 50 µM | – | – | – | – | CC[C@@H]1C(=O)N(C)c2cnc(-c3cn[nH]c3)nc2N1C(C)C [Example 31, (R)-7-ethyl-8-isopropyl-5-methyl-2-(1H-pyrazol-4-yl)-7,8-dihydropteridin-6(5H)-one]
3 | – | – | – | 10 to 50 µM | 1 to 10 µM | > 50 µM | – | CC[C@H]1C(=O)N(C)c2cnc(-c3cn[nH]c3-c3nccs3)nc2N1c1ccc(Cl)cc1 [Example 383, (S)-8-(4-chlorophenyl)-7-ethyl-5-methyl-2-(5-(thiazol-2-yl)-1H-pyrazol-4-yl)-7,8-dihydropteridin-6(5H)-one]
4 | 1 to 10 µM | < 1 µM | 10 to 50 µM | – | – | – | – | CC(C)N1c2nc(-n3ccnc3-c3ccccc3)ncc2N(C)C(=O)C12CCC2 [Example 289, 8′-isopropyl-5′-methyl-2′-(2-phenyl-1H-imidazol-1-yl)-5′H-Spiro[cyclobutane-1,7′-pteridin]-6′(8′H)-one]
5 | 10 to 50 µM | < 1 µM | 10 to 50 µM | – | – | – | – | CC[C@@H]1C(=O)N(C)c2cnc(-n3ccnc3-c3ccc(F)cc3Cl)nc2N1CCC(F)(F)F [Example 282, (R)-2-(2-(2-chloro-4-fluorophenyl)-1H-imidazol-1-yl)-7-ethyl-5-methyl-8-(3,3,3-trifluoropropyl)-7,8-dihydropteridin-6(5H)-one]
6 | > 50 µM | < 1 µM | > 50 µM | – | – | – | more active compound | CC[C@@]12CCCCN1c1nc(-n3ccnc3-c3cc(F)c(F)c(F)c3)ncc1N(C)C2=O [Example 266, (S)-6a-ethyl-5-methyl-2-(2-(3,4,5-trifluorophenyl)-1H-imidazol-1-yl)-7,8,9,10-tetrahydro-5H-pyrido[2,1-h]pteridin-6(6aH)-one]
7 | 1 to 10 µM | < 1 µM | 10 to 50 µM | – | – | – | – | CC[C@@H]1C(=O)N(C)c2cnc(-n3ccnc3-c3ccc(F)cn3)nc2N1C1CCC1 [Example 224, (R)-8-cyclobutyl-7-ethyl-2-(2-(5-fluoropyridin-2-yl)-1H-imidazol-1-yl)-5-methyl-7,8-dihydropteridin-6(5H)-one]
8 | > 50 µM | 1 to 10 µM | > 50 µM | – | – | – | – | CC[C@@H]1C(=O)N(C)c2cnc(-c3ccncc3NS(C)(=O)=O)nc2N1C(C)C [Example 119, (R)—N-(4-(7-ethyl-8-isopropyl-5-methyl-6-oxo-5,6,7,8-tetrahydropteridin-2-yl)pyridin-3-yl)methanesulfonamide]
9 | 1 to 10 µM | < 1 µM | 10 to 50 µM | – | – | – | – | CC[C@@H]1C(=O)N(C)c2cnc(-n3ccnc3-c3nccs3)nc2N1C(C)C [Example 151, (R)-7-ethyl-8-isopropyl-5-methyl-2-(2-(thiazol-2-yl)-1H-imidazol-1-yl)-7,8-dihydropteridin-6(5H)-one]
10 | 10 to 50 µM | < 1 µM | > 50 µM | – | – | – | – | CC[C@@]12CCCN1c1nc(-n3ccnc3-c3cccc(-n4cccn4)c3)ncc1N(C)C2=O [Example 276, (S)-2-(2-(3-(1H-pyrazol-1-yl)phenyl)-1H-imidazol-1-yl)-6a-ethyl-5-methyl-6a,7,8,9-tetrahydropyrrolo[2,1-h]pteridin-6(5H)-one]
11 | 1 to 10 µM | < 1 µM | > 50 µM | – | – | – | more active compound | CC[C@@]12CCCCN1c1nc(-n3ccnc3-c3cc(F)cc(F)c3)ncc1N(C)C2=O [Example 249, (S)-2-(2-(3,5-difluorophenyl)-1H-imidazol-1-yl)-6a-ethyl-5-methyl-7,8,9,10-tetrahydro-5H-pyrido[2,1-h]pteridin-6(6aH)-one]
